Laboratory results: patent US11225490B2, “Prodrugs of secondary amine compounds” (Alkermes Pharma Ireland Limited, priority 2011, dated 2022)

Experiment: Pharmacokinetic evaluation of prodrugs in rats (plasma olanzapine and prodrug after intramuscular injection)
Assay type: in vivo, Male Sprague-Dawley rats
Conditions: ([Prodrug AUClast/MWprodrug]/[OLZ AUCINF/MWOLZ])*100, IM, dose 3 mg
Protocol: Male Sprague-Dawley rats (Charles River Laboratories, Wilmington, Mass.) 25 male Sprague-Dawley rats are obtained. Approximately 24 rats are used in each study. Rats are approximately 325-350 g at time of arrival, and are housed 2 per cage with ad libitum chow and water. Environmental conditions in the housing room are 64-76° F., 30% to 70% relative humidity, and 12:12-h light:dark cycle. All experiments are approved by the Institutional Animal Care and Use Committee.
Prodrug compounds (Compound 56, Compound 111, and Compound 112) of the invention and corresponding parent drugs of the prodrugs are tested.
Rats are dosed IM by means of a 25 gauge, ⅝ in. needle with 1 cc syringe. 0.3mL suspension is withdrawn from the vial containing the test compound. The rat is injected in the muscles of the hind limb after anesthesia with isoflourane. Blood samples are collected via a lateral tail vein after brief anesthesia with Isoflurane. A 27½ G needle and lcc syringe without an anticoagulant is used for the blood collection. Approximately 250 μL of whole blood is collected at each sampling time point of 1 hour, 6 hours, 24 hours and 2, 3, 6, 7, 10, 14 days after administration. Once collected, whole blood is immediately transferred to tubes containing an esterase inhibitor and anti-coagulant, inverted 10-15 times and immediately placed on ice. The tubes are centrifuged for 2 minutes at >14,000 g's (11500 RPMs using Eppendorf Centrifuge at 2-6° C. to separate plasma. Plasma samples are transferred to labeled plain tubes and stored frozen at <−70° C. The study design is shown in Table 5 and the PK results are given in Table 6.
The Olanzapine and prodrug concentrations in plasma samples were analyzed by liquid chromatography-tandem mass spectroscopy using appropriate parameters for each compound.
Half life, maximal concentration, and AUC are calculated using WinNonlin software, version 5.2 (Pharsight, St. Louis, Mo.). (FIGS. 1-4).

| SMILES | Relative exposure of prodrug |
| --- | --- |
| CCCCCCCCCCCCCCCCCC(=O)OCOC(=O)N1C(N2CCN(C)CC2)=c2cc(C)sc2=Nc2ccccc21 [Compound 111, (stearoyloxy)methyl 2-methyl-4-(4-methylpiperazin-1-yl)-5H-benzo[b]thieno[2,3-e][1,4]diazepine-5-carboxylate] | <3% |
| CCCCCCCCCCCCCCCC(=O)OCOC(=O)N1C(N2CCN(C)CC2)=c2cc(C)sc2=Nc2ccccc21 [Compound 56, (palmitoyloxy)methyl 2-methyl-4-(4-methylpiperazin-1-yl)-5H-benzo[b]thieno[2,3-e][1,4]diazepine-5-carboxylate] | Not detected |
| CCCCCCCCCCCCCCCCCCCC(=O)OCOC(=O)N1C(N2CCN(C)CC2)=c2cc(C)sc2=Nc2ccccc21 [Compound 112, (icosanoyloxy)methyl 2-methyl-4-(4-methylpiperazin-1-yl)-5H-benzo[b]thieno[2,3-e][1,4]diazepine-5-carboxylate] | 12% |
